Source: patent EP0141119A2, “Sulfenamide derivatives, process for their preparation, and medicaments containing these compounds” (LUDWIG HEUMANN & CO GMBH, priority 1983, dated 1985)

Target: T1, Histamin-H2-Rezeptoren (Cavia porcellus, UniProt P47747)
T1 construct: in vitro am isolierten rechten Vorhof des Meerschweinchens; from tissue; host or cells: isolated right atrium of the guinea pig
Experiment: Determination of pA2 values in vitro on the isolated right atrium of the guinea pig (H2-antagonistic activity)
Type: cell-based, Meerschweinchen
Conditions: read-out: pA2-Werte (converted)
Text: Eine anerkannte Methode zur Bestimmung H2-antagonistischer Wirksamkeit ist die Ermittlung der pA2-Werte in vitro am isolierten rechten Vorhof des Meerschweinchens.

T1 sequence (P47747 whole entry): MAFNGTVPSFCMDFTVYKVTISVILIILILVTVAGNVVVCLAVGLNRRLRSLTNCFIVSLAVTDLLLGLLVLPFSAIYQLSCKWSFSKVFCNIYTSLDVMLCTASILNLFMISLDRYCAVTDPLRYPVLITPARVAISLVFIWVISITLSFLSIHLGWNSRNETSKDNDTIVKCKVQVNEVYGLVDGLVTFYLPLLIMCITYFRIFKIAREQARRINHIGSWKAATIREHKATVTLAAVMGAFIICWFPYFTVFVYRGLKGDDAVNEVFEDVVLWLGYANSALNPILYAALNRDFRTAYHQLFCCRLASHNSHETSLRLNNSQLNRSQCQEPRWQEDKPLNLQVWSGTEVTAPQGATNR

Structure (SMILES) | Kb
Cc1ccc(SNc2nc(NCCCOc3cccc(CN4CCCCC4)c3)n(C)n2)cc1 [Beispiel 1, 1-Methyl-5-[3-[3-(1-piperidinylmethyl)phenoxy]propylamino]-3-(4-methyl-benzolsulfenamido)-1H-1,2,4-triazol] | 1.58 nM
CNC(=C[N+](=O)[O-])NCCSCc1ccc(CN(C)C)o1 [Ranitidin] | 155 nM
